Assay results: patent US12109266B2, “Modulating gabarap to modulate immunogenic cell death” (Dana-Farber Cancer Institute, Inc., priority 2020, dated 2024)
Entries after “also recorded” stand apart in the source; their conditions may differ.

Experiments:
[1] = test system: AMO1, H929 and KMS11 MM cells; assay: Phagocytosis assay of MM cells by monocyte-derived DCs; format: cell-based, human
Procedure: Mo-DCs were generated from CD14+ peripheral blood monocytes were positively selected using magnetic beads (Miltenyi Biotec) and cultured for 6 days in mo-DC differentiation medium containing GM-CSF and IL-4 (130-094-812; Miltenyi Biotec) to generate Mo-DCs. AMO1, KMS11 and H929 cells lines, as well as patient MM cells, were stained with CellTrace™ Far Red (ThermoFisher Scientific), cultured with or without BTZ (for 16 h), and then incubated in 48-well plates for 4 h at 1:1 ratio with CellTrace™ CFSE stained Mo-DCs. Cells were then collected, and phagocytosis analysis was performed by flow cytometry and confocal microscopy. Analagous phagocytosis experiments was performed using 5TGM1 murine MM and immature murine DC line JAWSII.
Collected cells were analyzed using the BD LRSFortessa™ X-20 flow cytometer. Mo-DCs that engulfed MM cells were CFSE and FAR-RED double positive. Fold increase in percentage of double positive DCs after co-culture with BTZ treated vs untreated MM cells was compared.
Mo-DCs were generated from CD14+ peripheral blood monocytes from healthy donors, positively selected using magnetic beads (Miltenyi Biotec), cultured for 6 days in mo-DC differentiation medium containing GM-CSF and IL-4 (130-094-812; Miltenyi Biotec). AMO1 and NCI-H929 cells lines, as well as patient MM cells, were stained with CellTrace™ Far Red (ThermoFisher Scientific), cultured with or without BTZ for 16 h, and then incubated in 48-well plates for 4 h at 1:1 ratio with CellTrace™ CFSE stained Mo-DCs. Cells were then collected, and phagocytosis analysis was performed by flow cytometry and confocal microscopy. Analagous phagocytosis experiments were performed using 5TGM1 murine multiple myeloma and JAWSII cell line that was used as source of immature murine DCs.
Flow cytometry-based assay: Collected cells were analyzed using the BD LRSFortessa X-20 flow cytometer. Mo-DCs that engulfed MM cells were CFSE and FAR-RED double positive. Fold increase in percentage of double positive DCs after co-culture with BTZ treated vs untreated MM cells was compared.

5TGM1 cells = assay: In vivo rechallenge of viable 5TGM1 cells in BTZ-treated mice; parameters: species or system mouse
Procedure: C57BL/KaLwRijHsd mice bearing 5TGM1 WT tumors were treated with BTZ as above. 2 weeks after observation of tumor regression, treated (n=5) as well as naïve mice (n=5), were rechallenged with viable 1×10^6 5TGM1 WT cells, and tumor growth was monitored over time. In a parallel experiment, spleens were harvested 2 weeks after tumor rechallenge from both groups to test T cell specific reactivity against multiple myeloma cell by ELISPOT assay (Translational Immunogenomics Laboratory, DFCI).

5TGM1 tumors = assay: IHC CD3 staining of tumors; format: in vivo, mouse; settings: tumors retrieved after one administration of the drugs
Procedure: NOD/SCID and C57BL/KaLwRijHsd mice were subcutaneously (sc) injected with 1×10^6 5TGM1 either WT or Calr^KO cells in PBS. When tumor became measurable, mice were randomized to receive either PBS or BTZ administered intra peritoneally (i.p.) 0.5 mg/kg twice/week for 2 weeks. Tumor sizes were measured as previously described (46), and mice were sacrificed when tumors reached 2 cm in diameter or ulceration or major compromise in quality of life. A parallel experiment was performed to allow for tumor harvesting after two injections ip of BTZ for RNA-seq analysis, as detailed below. For BTZ and STING agonist combination studies, C57BL/KaLwRijHsd (n=5/group) and SCID/NOD (n=6/group) mice bearing 5TGM1 WT and C57BL/KaLwRijHsd mice (n=5/group) bearing 5TGM1 Sting^KO tumors were randomized to receive: PBS, BTZ (0.375 mg/kg twice a week for 2 weeks, i.p.), ADU-S100 (100 μg) administered in the peritumoral area (day 1 and 2), or a combination. Tumor sizes were measured as described above. A parallel experiment in C57BL/KaLwRijHsd mice was performed to allow for tumor harvesting after one administration of either BTZ or ADU-S100. Tumors were fixed in 10% formalin for 24 h, and then maintained in 70% ethanol prior to paraffin embedding and processing for IHC to detect CD3 (#nb600 Ab, Novus Bio).

CALR = assay: Mass spectrometry after CALR immunoprecipitation; format: cell-based, human; settings: AMO1 WT vs GABARAP^KO, with or without BTZ
From the text: To test this hypothesis, the CALR network was explored at the protein level by performing mass spectrometry (MS) after CALR immunoprecipitation (IP) in WT or GABARAP^KO AMO1 cells in the presence or absence of BTZ. […] CALR trap in the mitochondria has been recently reported in tumors with high stanniocalcin 1 (STC1), a newly recognized phagocytosis checkpoint driving tumor immune resistance (Lin et al. (2021) Cancer Cell. April 12; 39(4):480-493.e6. doi: 10.1016/j.ccell.2020.12.023. Epub 2021 Jan. 28. PMID: 33513345; PMCID: PMC8044011). […] A WB analysis of FLAG-immunoprecipitated proteins in […] cells expressing FLAG-tagged GABARAP was performed to analyze GABARAP interacting partners. […] These findings identify a molecular mechanism whereby GABARAP prevents STC1 binding to CALR; conversely, in low-GABARAP cells STC1 binding to CALR induces trapping of CALR in the mitochondria (FIG. 34).

Structure (SMILES): CC(C)C[C@H](NC(=O)[C@H](Cc1ccccc1)NC(=O)c1cnccn1)B(O)O [BTZ, bortezomib]
- phagocytosis of BTZ-treated MM cells by DCs ([1]; AMO1, NCI-H929 WT, BTZ 16 h, then 4 h co-culture): induces functional maturation of dendritic cells (DCs) in vitro; also recorded: enhanced uptake of BTZ-treated MM cells; also recorded: engulfed by monocyte-derived DCs after 4 h of co-culture
- phagocytosis of BTZ-treated MM cells by DCs ([1]; AMO1 GABARAP^KO): did not stimulate phagocytosis by DCs; also recorded: GABARAP^KO abrogates phagocytosis by DCs
- induction of ICD ([1]; GABARAP^KO in 2 ICD-sensitive cell lines (AMO1, H929)): abrogated the induction of ICD by BTZ
- induction of ICD ([1]; KMS11 / GABARAP-null cells): resistant to induction of ICD by BTZ
- induction of ICD ([1]; KMS11 / GABARAP-null cells, listed as Bortezomib): does not induce ICD in GABARAP-null cells
- functional maturation of co-cultured DCs (phagocytosis assay) ([1]; KMS11 cells (monoallelic deletion of GABARAP)): did not lead to an increase of CRT exposure or functional maturation of co-cultured DCs
- mice alive at the end of observation (5TGM1 cells; day 30 after rechallenge): 100%
- tumor development after rechallenge (5TGM1 cells; live 5TGM1 WT injected two weeks after BTZ-induced tumor regression): did not result in tumor development
- CD3+ T cell infiltration within tumors (IHC) (5TGM1 tumors): increased CD3+ T cell infiltration within tumors
- binding of CALR to mitochondrial proteins (CALR): increases the binding of CALR to mitochondrial proteins in AMO1 GABARAP^KO cells and not WT cells; also recorded: increase of the binding of CALR to mitochondrial proteins only in AMO1 GABARAP^KO cells; also recorded: CALR localizes to the mitochondria after treatment with BTZ in GABARAP KO cells
